“Also recorded” adds a separate entry of the source.
Tests used:
E. coli [1] = assay: Killing of E. coli suspended in solution under irradiation or dark incubation (Part IV); assay type: cell-based; conditions: for killing of E. coli / killing of E. coli at longer times: 1-10 μg/mL; for killing of E. coli: five minutes of irradiation; for killing of E. coli at longer times: longer than five minutes; for activity against E. coli in suspension in the dark: dark incubation
Text: (§1) In the current study we have observed Compound E, Compound D, and Formula X in aqueous media with suspensions of E. coli and SARS-CoV-2 for Compound E and with suspensions of E. coli for Compound D and Formula X. We have also studied these oligomers as supported coatings on various supporting materials including wipe scaffolds, commercial Kimwipes, and proprietary materials from Diamond Wipes and HYDAC.

E coli = assay: Light-activated killing of bacteria (Example III-1); assay type: cell-based
Text: No killing of bacteria in the dark has yet been observed.

SARS-CoV-2 [2] = assay: Compound E-coated glass fiber filter: inactivation of SARS-CoV-2 under cool white light, plaque assay on Vero E6 cells; assay type: cell-based; conditions: for inactivation of the virus: coated on glass fiber, cool white
mammal models = conditions: in vivo
SARS-CoV-2 [3] = assay: Compound E in solution: inactivation of SARS-CoV-2 under cool white light, plaque assay on Vero E6 cells; assay type: cell-based
E. coli [4] = assay: Killing of E. coli by compound coated on wet wipe surface or filter; assay type: cell-based
Text: Compound E was applied to a wet wipe surface and also to the surface of a filter for filtration of air or water.
as §1

bacteria = assay: Antibacterial activity of oligomer IX under visible light and in the dark; assay type: cell-based
SARS-CoV-2 [5] = assay type: cell-based; conditions: cool white; 30 minutes irradiation (earliest point)

Cn1cc[n+](CCCOc2ccc(C#Cc3ccc(C#Cc4ccc(OCCC[n+]5ccn(C)c5)cc4)cc3)cc2)c1 [Compound D]
killing of E. coli (E. coli [1]; near UV): ~99%
killing of E. coli at longer times (E. coli [1]; near UV): complete killing
activity against E. coli in suspension in the dark (E. coli [1]): neither compound showed any killing; also recorded: not under visible light or dark conditions
activity against E. coli in suspension under near-UV (E. coli [1]): had activity
activity against E. coli in suspension under visible light (E. coli [1]; visible light): not under visible light or dark conditions
relative reactivity (E coli): more reactive than Compound E
anti-bacterial activity using LuzChem cool white light (E coli): excellent anti-bacterial activity
killing of bacteria in the dark (E coli): No killing
light-activated killing of bacteria (E coli): excellent light-activated killing

Cn1cc[n+](CCCOc2ccc(C#Cc3ccc(C#Cc4ccc(OCCC[n+]5ccn(C)c5)cc4)s3)cc2)c1 [Compound E]
inactivation of the virus (SARS-CoV-2 [2]; 10 minutes irradiation): about 90%
inactivation of the virus (SARS-CoV-2 [2]; 30 minutes): 3 log
activity against SARS-Cov-2 on a filter (SARS-CoV-2 [2]; visible light and near-UV): had activity
toxicity against mammal models (mammal models): no toxicity
killing of E. coli (E. coli [1]; visible light): ~99%
killing of E. coli at longer times (E. coli [1]; visible light): complete killing
activity against E. coli in suspension in the dark (E. coli [1]): neither compound showed any killing; also recorded: not in dark conditions
activity against E. coli in suspension under near-UV (E. coli [1]): had activity
activity against E. coli in suspension under visible light (E. coli [1]; visible light): had activity
activity against SARS-Cov-2 in suspension in the dark (SARS-CoV-2 [3]; dark conditions): not in dark conditions
inactivation of the virus (SARS-CoV-2 [3]; solution (10 μg/mL), cool white, 5 minutes of irradiation): > 95%
inactivation at longer irradiation (SARS-CoV-2 [3]; solution, cool white, 10 minutes or longer): complete deactivation inactivation
activity against SARS-Cov-2 in suspension (SARS-CoV-2 [3]; visible light and near-UV): had activity
light-activated killing of E. coli on coated surface (E. coli [4]; applied to wet wipe surface and filter surface): strong light-activated killing
activity against E. coli on a filter in the dark (E. coli [4]; dark conditions): not in dark conditions
activity when coated surface immersed in suspension of E. coli (E. coli [4]; surface immersed in E. coli suspension): activity was retained
activity against E. coli on a filter (E. coli [4]; visible light and near-UV): had activity
anti-bacterial activity using LuzChem cool white light (E coli): excellent anti-bacterial activity
killing of bacteria in the dark (E coli): No killing
light-activated killing of bacteria (E coli): excellent light-activated killing

C[N+](C)(C)CCCOc1ccc(C#Cc2ccc(C#Cc3ccc(OCCC[N+](C)(C)C)cc3)cc2)cc1 [Formula IX]
activity against bacteria in the dark (bacteria; dark): active against bacteria in the dark
activity under visible light irradiation (bacteria; visible light): not active under visible light irradiation

C[N+](C)(C)CCCOc1ccc(C#Cc2ccc(C#Cc3ccc(OCCC[N+](C)(C)C)cc3)s2)cc1 [Formula X]
virus present (SARS-CoV-2 [5]): no virus present
activity against E. coli in suspension in the dark (E. coli [1]): considerable dark reactivity; also recorded: had activity
activity against E. coli in suspension under near-UV (E. coli [1]): activity under visible light and near-UV; also recorded: had activity
activity against E. coli in suspension under visible light (E. coli [1]; visible light): activity under visible light and near-UV; also recorded: had activity
